{
  "source": "patent US5654426A",
  "about": "“Ecteinascidins” (priority 1995, dated 1997)",
  "key": {"P-388 leukemia cells": {"test_system": "P-388 leukemia cells", "experiment": "In vivo antitumor activity in mice vs. P-388 leukemia", "settings": "for T/C vs. P-388 / survivors, P-388: mice"}, "[1]": {"test_system": "LX-1 human lung carcinoma xenograft", "experiment": "In vivo antitumor activity in mice vs. LX-1 human lung carcinoma xenograft"}, "M-5076 ovarian sarcoma": {"test_system": "M-5076 ovarian sarcoma", "experiment": "In vivo antitumor activity in mice vs. M-5076 ovarian sarcoma"}, "[2]": {"test_system": "MX-1 human mammary carcinoma xenograft", "experiment": "In vivo antitumor activity in mice vs. MX-1 human mammary carcinoma xenograft"}, "B-16 melanoma": {"test_system": "B-16 melanoma", "experiment": "In vivo antitumor activity in mice vs. B-16 melanoma"}, "Lewis lung carcinoma": {"test_system": "Lewis lung carcinoma", "experiment": "In vivo antitumor activity in mice vs. Lewis lung carcinoma"}, "[3]": {"test_system": "variety of tumor models in mice", "experiment": "In vivo activity against several tumor models in mice"}, "L1210 leukemia cells": {"test_system": "L1210 leukemia cells", "experiment": "Inhibition of L1210 leukemia cells in plate assays", "format": "cell-based", "settings": "Mus musculus", "experimental": "Et's 722 (Compound 6) and 736 (Compound 7)inhibit L1210 leukemia cells to the extent of 90% in plate assays at 2.5 and 5.0 μg/ml, respectively."}, "DNA": {"test_system": "DNA", "settings": "Lown et al. 1982; Zmijewski et al. 1985; cited from earlier work"}, "[4]": {"test_system": "P-388 murine leukemia cell line", "experiment": "In vitro activity against P-388 murine leukemia cell line", "format": "cell-based", "experimental": "(§1) Compounds 3 and 5 described herein were tested in vitro against the following cell lines; P-388 murine leukemia cell line; HT-29 human colon cancer cell line; A-549 human lung adenocarcinoma cell line; and CV-1 monkey kidney cell line (non-cancerous); and the IC50 in μg/ml was determined."}, "[5]": {"test_system": "A-549 human lung adenocarcinoma cell line", "experiment": "In vitro activity against A-549 human lung adenocarcinoma cell line", "format": "cell-based", "experimental": "as §1"}, "[6]": {"test_system": "HT-29 human colon cancer cell line", "experiment": "In vitro activity against HT-29 human colon cancer cell line", "format": "cell-based", "experimental": "as §1"}, "[7]": {"test_system": "CV-1 monkey kidney cell line", "experiment": "In vitro activity against CV-1 monkey kidney cell line (non-cancerous)", "format": "cell-based", "settings": "CV-1 monkey kidney (non-cancerous)", "experimental": "as §1"}, "[8]": {"settings": "comparison Compound 1 vs. Compound 6"}},
  "data": [
    {"molecule": "COc1cc2c(cc1O)CCN[C@]21CSC2c3c(OC(C)=O)c(C)c4c(c3C(COC1=O)N1C2C2NC(Cc3cc(C)c(OC)c(O)c32)[C@@H]1O)OCO4", "note": "(stereo partly shown) [Compound 1]", "values": [
      {"measurement": "T/C vs. P-388", "setting": "P-388 leukemia cells; 12.5 μg/kg day", "value": 190},
      {"measurement": "survivors, P-388", "setting": "P-388 leukemia cells; 12.5 μg/kg day", "value": "1/6"},
      {"measurement": "T/C vs. LX-1", "setting": "[1]; 25 μg/kg", "value": 0.00},
      {"measurement": "activity vs. LX-1 compared with Compound 6", "setting": "[1]; [8]", "value": "more active"},
      {"measurement": "T/C vs. M-5076", "setting": "M-5076 ovarian sarcoma; 12.5 μg/kg", "value": 204},
      {"measurement": "survivors, M-5076", "setting": "M-5076 ovarian sarcoma; 12.5 μg/kg", "value": "5/10"},
      {"measurement": "activity vs. M-5076 compared with Compound 6", "setting": "M-5076 ovarian sarcoma; [8]", "value": "more active"},
      {"measurement": "T/C vs. MX-1", "setting": "[2]; 37.5 μg/kg", "value": 0.05},
      {"measurement": "activity vs. MX-1 compared with Compound 6", "setting": "[2]; [8]", "value": "more active"},
      {"measurement": "T/C vs. B-16", "setting": "B-16 melanoma; 12.5 μg/kg", "value": 253},
      {"measurement": "activity vs. B-16 compared with Compound 6", "setting": "B-16 melanoma; [8]", "value": "more active"},
      {"measurement": "T/C vs. Lewis lung", "setting": "Lewis lung carcinoma; 25 μg/kg", "value": 0.00},
      {"measurement": "activity vs. Lewis lung compared with Compound 6", "setting": "Lewis lung carcinoma; [8]", "value": "more active"},
      {"measurement": "in vivo activity in mice", "setting": "[3]", "value": "exceedingly potent activity in vivo"}
    ]},
    {"molecule": "COc1c(C)cc2c(c1O)C1NC(C2)[C@H](O)N2C3COC(=O)[C@]4(CSC(c5c(OC(C)=O)c(C)c6c(c53)OCO6)C12)NCCc1c4[nH]c2ccccc12", "note": "(stereo partly shown) [Compound 6]", "values": [
      {"measurement": "inhibition at 2.5 µg/mL", "setting": "L1210 leukemia cells; at 2.5 μg/ml", "value": 90, "unit": "%"},
      {"measurement": "T/C vs. P-388", "setting": "P-388 leukemia cells; 25 μg/kg day", "value": "> 265"},
      {"measurement": "survivors, P-388", "setting": "P-388 leukemia cells; 25 μg/kg day", "value": "2/6"},
      {"measurement": "activity vs. P-388 compared with Compound 1", "setting": "P-388 leukemia cells; comparison Compound 6 vs. Compound 1", "value": "more effective than Compound 1"},
      {"measurement": "T/C vs. LX-1", "setting": "[1]; 50 μg/kg, mice", "value": 200},
      {"measurement": "activity vs. M-5076 ovarian sarcoma", "setting": "M-5076 ovarian sarcoma; mice", "value": "slightly active"},
      {"measurement": "activity vs. MX-1 human mammary carcinoma xenograft", "setting": "[2]; mice", "value": "slightly active"},
      {"measurement": "in vivo activity in mice", "setting": "[3]", "value": "highly active in vivo in mice"}
    ]},
    {"molecule": "COC1=C(C)C(=O)C2=C(C1=O)C1C3CC4=C(C(=O)C(OC)=C(C)C4=O)C(CNC(=O)C(C)=O)N3C(C#N)C(C2)N1C", "note": "(stereo not shown) [saframycin A]", "values": [
      {"measurement": "reactions with DNA", "setting": "DNA", "value": "reversible reactions"}
    ]},
    {"molecule": "COC1=C(C)C(=O)C2=C(C1=O)C(CO)N1C(O)C3CC4C(C1C2N1CCOC41)N3C", "note": "(stereo not shown) [naphthyridinomycin]", "values": [
      {"measurement": "reactions with DNA", "setting": "DNA", "value": "reversible reactions"}
    ]},
    {"molecule": "COc1c(C)cc2c(c1O)C1C3C4SC[C@]5(NCCc6c5[nH]c5ccccc65)C(=O)OCC(c5c6c(c(C)c(OC(C)=O)c54)OCO6)N3[C@@H](O)C(C2)N1C", "note": "(stereo partly shown) [Compound 7]", "values": [
      {"measurement": "inhibition at 5 µg/mL", "setting": "L1210 leukemia cells; at 5.0 μg/ml", "value": 90, "unit": "%"}
    ]},
    {"molecule": "COc1cc2c(cc1O)CCN[C@]21CSC2c3c(OC(C)=O)c(C)c4c(c3C(COC1=O)N1C2C2c3c(cc(C)c(OC)c3O)CC([C@@H]1O)N2C)OCO4", "note": "(stereo partly shown) [Compound 2]", "values": [
      {"measurement": "in vivo activity in mice", "setting": "[3]", "value": "exceedingly potent activity in vivo"}
    ]},
    {"molecule": "Et 743 N^12 -Oxide [Compound 5]", "values": [
      {"measurement": "IC50 against P-388", "setting": "[4]", "value": 1, "unit": "ng/mL"},
      {"measurement": "IC50 against A-549", "setting": "[5]", "value": 2.5, "unit": "ng/mL"},
      {"measurement": "IC50 against HT-29", "setting": "[6]", "value": 2.5, "unit": "ng/mL"},
      {"measurement": "IC50 against CV-1", "setting": "[7]", "value": 2.5, "unit": "ng/mL"}
    ]},
    {"molecule": "COc1cc2c(cc1O)CCN[C@]21CSC2c3c(OC(C)=O)c(C)c4c(c3C(COC1=O)N1C2C2c3c(cc(C)c(OC)c3O)CC([C@@H]1O)N2C=O)OCO4", "note": "(stereo partly shown) [Compound 3, N^12 -Formyl Et 729]", "values": [
      {"measurement": "IC50", "setting": "[4]; Mus musculus, P388", "value": 0.5, "unit": "ng/mL"},
      {"measurement": "IC50", "setting": "[5]; A549", "value": 2, "unit": "ng/mL"},
      {"measurement": "IC50", "setting": "[6]", "value": 2, "unit": "ng/mL"},
      {"measurement": "IC50", "setting": "[7]; Primates", "value": 5, "unit": "ng/mL"}
    ]}
  ]
}
